# Laboratory results as given in patent publication US5866588A, “Imidazopyridine derivatives” (British Biotech Pharmaceuticals Ltd., priority 1995, dated 1999).
# Experiments:
# [1] = target: T1, histamine-1 receptors on Hela-S3 cells (Homo sapiens, UniProt P35367); experiment: Inhibition of [^3 H]-Pyrilamine Binding to Histamine-1 Receptors on Hela-S3 Cells; conditions: 0.5 h; 1 μM test compound; [^3 H]-pyrilamine remaining specifically bound; 37° C., 30 minutes; read-out: % Specific Binding at 1 μM
# T1 construct: histamine-1 receptors on Hela-S3 cells (American Type Culture Collection); host or cells: HeLa-S3 cells (intact cell suspension)
# T1 sequence (P35367 whole entry): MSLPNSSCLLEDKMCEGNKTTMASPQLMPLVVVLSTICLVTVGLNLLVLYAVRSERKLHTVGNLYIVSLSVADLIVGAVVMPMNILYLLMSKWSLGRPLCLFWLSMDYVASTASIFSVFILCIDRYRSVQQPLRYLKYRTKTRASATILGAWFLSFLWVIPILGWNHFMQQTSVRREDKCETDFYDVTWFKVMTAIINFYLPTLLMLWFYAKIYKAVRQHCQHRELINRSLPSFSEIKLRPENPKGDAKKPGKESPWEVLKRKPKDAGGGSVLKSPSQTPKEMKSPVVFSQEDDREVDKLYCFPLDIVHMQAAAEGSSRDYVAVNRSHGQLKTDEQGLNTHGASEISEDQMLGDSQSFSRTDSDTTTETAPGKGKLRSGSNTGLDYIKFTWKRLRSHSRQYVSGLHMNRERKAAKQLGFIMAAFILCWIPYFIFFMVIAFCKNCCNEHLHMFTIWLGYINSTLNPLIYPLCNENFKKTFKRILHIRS
# Description: Inhibition of [^3 H]-Pyrilamine Binding to Histamine-1 Receptors on Hela-S3 Cells
# The inhibition of [^3 H]-pyrilamine binding to histamine-1 receptors on Hela-S3 cells (American Type Culture Collection) was determined by isotopic labelling and filtration techniques. A suspension of the cells in buffer (25 ml, 0.5% Bovine Serum Albumin, 0.1% sodium azide, phosphate buffered saline (PBS)) was centrifuged at 1000 rpm for 5 minutes in a JOUAN CR 422 centrifuge, collected, resuspended in buffer (25 ml) and spun again. The cells were counted using a haemocytometer and resuspended in buffer to provide a final concentration of 4.5×10^6 cells ml^-1. A portion of the Hela-S3 cell suspension (1 ml) was added to each assay tube containing 25 μl of vehicle (50% DMSO/buffer) or 25 μl of test compound solution (dissolved in DMSO and diluted with sufficient PBS to give a final test concentration of 1 μM) and 25 μl of [^3 H]-pyrilamine (supplied by Amersham International and diluted with PBS to 3 nM). The tubes were mixed, incubated at 37° C. for 30 minutes and then spun at 4° C. at 2000 rpm for 2 minutes. The supernatant was removed and the cells resuspended in buffer (repeated ×2). The cells were suspended in 300 μl of a 2:1 solution of 1M sodium hydroxide and 1% sodium dodecyl sulphate. The tubes were left ovemight before the contents were tranferred to a scintillation vial, treated with 10 ml, OPTIPHASE MP scintillation fluid (OPTIPHASE MP is a trade mark) and the radioactivity counted in a scintillation counter. Non-displacable binding (NDB) was determined using Astemizole (5×10^-5 M) in place of test compounds. Defining the counts for total binding from the vehicle control sample as "TB" and the counts for total binding with antogonist as "TBA" the percentage specific binding (% SB) can be determined from the following equation.
# [2] = system: PAF-Induced Platelet Aggregation; experiment: Inhibition of PAF-Induced Platelet Aggregation; format: cell-based, rabbit (New Zealand White); conditions: Oryctolagus cuniculus; rabbit platelet-rich plasma, PAF 100 ngml^-1
# Description: Inhibition of PAF-Induced Platelet Aggregation
# Male New Zealand White rabbits (3.0-3.5 kg) were anaesthetised by intravenous administration of sodium pentobarbitone, 18 mg.ml^-1, via a marginal ear vein. The trachea was exposed and connected to a respiratory pump (Harvard UK) to provide artificial ventilation. A carotid artery was exposed and cannulated and the animal was exsanguinated. Whole blood was collected in a syringe containing tri-sodium citrate (3.8% w/v) to a ratio of 1 part citrate:9 parts blood.
# Collected blood was centrifuged at 180×g for 15 minutes at room temperature (21° C.) to prepare platelet-rich plasma (PRP). The remaining blood was then centrifuged at 1800×g for 10 minutes at room temperature to obtain platelet poor plasma (PPP).
# Platelet count of the PRP was measured using a Technicon H1 blood cell differential analyser (Bayer Diagnostics UK) and adjusted with PPP to obtain a final platelet count of 500,000 platelets per μl of plasma, this being the normal physiological platelet count for rabbits. Corrected PRP was left to equilibrate at room temperature for 30 minutes before use.
# Aggregation studies were carried out using a 4-channel aggregometer (PAP-4C, BioData USA) as follows: 400 μl aliquots of PRP were placed in siliconised cuvettes and incubated to 37° C. for 1 to 2 minutes in the heating block of the aggregometer. Baseline (100% aggregation) was set up using PPP (500 μl in a siliconised cuvette). The PRP was placed into a measuring well of the aggregometer, and a stirrer bar was added. The sample was stirred at 1000 rpm. The machine was activated to set the 0% aggregation level. Test compound or vehicle (50 μl) was added to the PRP, where any effects on the baseline was noted. PAF (100 ngml^-1 as 50 μl aliqout) was added to the PRP 3 minutes after test compound or vehicle. Aggregation was measured for a further 4 minutes after PAF addition and the maximum aggregation over the 4 minutes was recorded.
# The investigation of different concentrations of test compound was performed in triplicate. Data were expressed as […] of the sample and test compound data were compared to vehicle data to obtain % inhibition of the PAF-induced aggregation from which IC50 values could be determined.
# PAF was made up in sterile saline (NaCl 0.9% w/v) containing BSA (0.25% w/v) from an initial stock solution (10 mgml^-1 in EtOH). Test compounds were made up as 1×10^-3 M stock solutions in sterile saline containing molar equivalents of 1N HCl (v/v) or in DMSO.
# In the results which follow, a comparison compound A was included. Compound A was prepared as described in EP-A-260613 (G. D. Searle), but is not part of the present invention. As appears from the results of the comparison, compounds of this invention, all of which incorporate a fragment capable of H1 antagonist activity, are observed to show improved PAF antagonist activity over compound A.
Structure (SMILES),activity at 1 µM [1] [%],IC50 [2] [nM]
"Cc1ccc(/C(=C\CN2CCCC2)c2cccc(/C=C/CN(C(=O)c3ccc(Cn4c(C)nc5cnccc54)cc3)C3CC(C)CC(C)C3)n2)cc1 (centres unmarked) [Example 11, N-3,5-Dimethylcyclohexyl-4-(1H-2-methylimidazo[4,5-c]pyridin-1-ylmethyl)-N-{3-[6-(3-pyrrolidin-1-yl-1-{4-tolyl}-prop-1E-enyl)-pyridin-2-yl]-prop-2E-enyl)-benzamide]",60,176
"CCCCN(C/C=C/c1cccc(/C(=C/CN2CCCC2)c2ccc(C)cc2)n1)C(=O)c1ccc(Cn2c(C)nc3cnccc32)cc1 [Example 22, N-Butyl-4-(1H-2-methylimidazo[4,5-c]pyridin-1-ylmethyl)-N-{3-[6-(3-pyrrolidin-1-yl-1-{4-tolyl}-prop-1E-enyl)-pyridin-2-yl]-prop-2E-enyl}-benzamide]",31,62
"Cc1ccc(/C(=C\CN2CCCC2)c2cccc(/C=C/CN(C(=O)c3ccc(Cn4c(C)nc5cnccc54)cc3)C3CCCC3)n2)cc1 [Example 8, N-Cyclopentyl-4-(1H-2-methylimidazo[4,5-c]pyridin-1-ylmethyl)-N-{3-[6-(3-pyrrolidin-1-yl-1-{4-tolyl}-prop-1E-enyl)-pyridin-2-yl]-prop-2E-enyl}-benzamide]",34,92
"Cc1ccc(/C(=C\CN2CCCC2)c2cccc(/C=C/CNC(=O)c3ccc(Cn4c(C)nc5cnccc54)cc3)n2)cc1 [Example 5, 4-(1H-2-Methylimidazo[4,5-c]pyridin-1-ylmethyl)-N-{3-[6-(3-pyrrolidino-1-{4-tolyl}-prop-1E-enyl)-pyridin-2-yl]-prop-2E-enyl}-benzamide]",16,2200
"Cc1ccc(/C(=C\CN2CCCC2)c2cccc(/C=C/CN(C(=O)c3ccc(Cn4c(C)nc5cnccc54)cc3)C(C)(C)C)n2)cc1 [Example 10, N-tert-Butyl-4-(1H-2-methylimidazo[4,5-c]pyridin-1-ylmethyl)-N-{3-[6-(3-pyrrolidin-1-yl-1-{4-tolyl}-prop-1E-enyl)-pyridin-2-yl]-prop-2E-enyl}-benzamide]",62,2010
"Cc1ccc(/C(=C\CN2CCCC2)c2cccc(/C=C/CN(CCC(C)C)C(=O)c3ccc(Cn4c(C)nc5cnccc54)cc3)n2)cc1 [Example 6, N-(3-Methyl-but-1-yl)-4-(1H-2-methylimidazo[4,5-c]pyridin-1-ylmethyl)-N-{3-[6-(3-pyrrolidin-1-yl-1-{4-tolyl}-prop-1E-enyl)-pyridin-2-yl]-prop-2E-enyl}-benzamide]",29,333
"Cc1ccc(/C(=C\CN2CCCC2)c2cccc(/C=C/CN(C)C(=O)c3ccc(-n4c(C)nc5cnccc54)cc3)n2)cc1 [Example 26, N-Methyl-4-(1H-2-methylimidazo[4,5-c]pyridin-1-yl)-N-{3-[6-(3-pyrrolidin-1-yl-1-{4-tolyl}-prop-1E-enyl)-pyridin-2-yl]-prop-2E-enyl}-benzamide]",26,–
"Cc1ccc(/C(=C\CN2CCCC2)c2cccc(CCCN(C(=O)c3ccc(Cn4c(C)nc5cnccc54)cc3)C3CCCCC3)n2)cc1 [Example 17, N-Cyclohexyl-4-(1H-2-methylimidazo[4,5-c]pyridin-1-ylmethyl)-N-{3-[6-(3-pyrrolidin-1-yl-1-{4-tolyl}-prop-1E-enyl)-pyridin-2-yl]-propyl}-benzamide]",58,315
"CCC(C)N(C/C=C/c1cccc(/C(=C/CN2CCCC2)c2ccc(C)cc2)n1)C(=O)c1ccc(Cn2c(C)nc3cnccc32)cc1 (racemic) [Example 9, N-(R,S) sec-Butyl-4-(1H-2-methylimidazo[4,5-c]pyridin-1-ylmethyl)-N-(E)-{3-[6-(3-pyrrolidin-1-yl-1-{4-tolyl}-prop-1E-enyl)-pyridin-2-yl]-prop-2-enyl}-benzamide]",63,43
"Cc1ccc(/C(=C\CN2CCCC2)c2cccc(/C=C/CN(C(=O)c3ccc(Cn4c(C)nc5cnccc54)cc3)C(C)C)n2)cc1 [Example 12, N-iso-Propyl-4-(1H-2-methylimidazo[4,5-c]pyridin-1-ylmethyl)-N-{3-[6-(3-pyrrolidin-1-yl-1-{4-tolyl}-prop-1E-enyl)-pyridin-2-yl]-prop-2E-enyl)-benzamide]",64,58
"Cc1ccc(/C(=C\CN2CCCC2)c2cccc(CCCOC(=O)c3ccc(Cn4c(C)nc5cnccc54)cc3)n2)cc1 [Example 2, 4-(1H-2-Methylimidazo[4,5-c]pyridin-1-ylmethyl)benzoic acid 3-[6-(3-pyrrolidin-1-yl-1-{4-tolyl}-prop-1E-enyl)-pyridin-2-yl]propyl ester]",15,542
"Cc1ccc(/C(=C\CN2CCCC2)c2cccc(/C=C/COC(=O)c3ccc(Cn4c(C)nc5cnccc54)cc3)n2)cc1 [Example 1, 4-(1H-2-Methylimidazo[4,5-c]pyridin-1-ylmethyl)benzoic acid 3-[6-(3-pyrrolidin-1-yl-1-{4-tolyl}-prop-1E-enyl)-pyridin-2-yl]prop-2E-enyl ester]",16,2100
"CN(C(=O)c1ccc(Cn2cnc3cnccc32)cc1)C1CCCCC1 [Compound A, reference compound]",–,74000
"Cc1ccc(/C(=C\CN2CCCC2)c2cccc(/C=C/CN(CC(C)C)C(=O)c3ccc(Cn4c(C)nc5cnccc54)cc3)n2)cc1 [Example 7, N-iso-Butyl-4-(1H-2-methylimidazo[4,5-c]pyridin-1-ylmethyl)-N-{3-[6-(3-pyrrolidin-1-yl-1-{4-tolyl}-prop-1E-enyl)-pyridin-2-yl]-prop-2E-enyl}-benzamide]",40,133
